Data taken from patent US6369047B2, “Androgenic steroid compounds and a method of making and using the same” (Research Triangle Institute, priority 1997, dated 2002).

Legend:
Male Rats = experiment: Long Term Androgenic Activity in Male Rats; type: in vivo, rat
[1] = biological target: T1, estrogen receptor from immature female rat uterus (Rattus norvegicus, UniProt P06211); experiment: Estrogen RBA: relative binding to estrogen receptor; settings: Estradiol = 100
T1 construct: estrogen receptor from immature female rat uterus; from tissue; host or cells: immature female rat uterus
T1 sequence (P06211 1-600): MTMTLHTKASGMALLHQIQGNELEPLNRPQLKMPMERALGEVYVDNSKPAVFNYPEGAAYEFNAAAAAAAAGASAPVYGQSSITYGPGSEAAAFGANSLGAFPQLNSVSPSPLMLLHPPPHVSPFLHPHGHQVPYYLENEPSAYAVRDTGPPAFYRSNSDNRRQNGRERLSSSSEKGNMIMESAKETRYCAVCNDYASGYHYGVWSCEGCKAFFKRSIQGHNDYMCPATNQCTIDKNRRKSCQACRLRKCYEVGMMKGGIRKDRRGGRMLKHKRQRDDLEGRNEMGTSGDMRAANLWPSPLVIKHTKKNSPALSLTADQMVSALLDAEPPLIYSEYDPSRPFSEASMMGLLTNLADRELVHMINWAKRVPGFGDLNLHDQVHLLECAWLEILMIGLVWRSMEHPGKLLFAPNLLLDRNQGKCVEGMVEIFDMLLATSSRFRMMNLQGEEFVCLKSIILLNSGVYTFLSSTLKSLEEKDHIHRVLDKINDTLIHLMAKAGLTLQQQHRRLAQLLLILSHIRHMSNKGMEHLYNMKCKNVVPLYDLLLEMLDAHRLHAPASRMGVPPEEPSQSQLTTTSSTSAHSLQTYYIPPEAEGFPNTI
Protocol: (§1) Additionally, Estrogen RBA was determined by relative binding (Estradiol=100) to estrogen receptor from immature female rat uterus, while Estrogenic Activity was determined by subcutaneous administration to immature female rats (Estradiol=100).

[2] = test system: immature castrated male rats; experiment: Androgenic Activity, subcutaneous administration to immature castrated male rats; type: in vivo, rat; settings: for Androgenic Activity, Levator Ani / Androgenic Activity, Seminal Vesicles / Androgenic Activity, Ventral Prostate: subcutaneous, Testosterone = 100
Protocol: Androgenic Activity was also evaluated using subcutaneous administration to immature castrated male rats (Testosterone=100).

[3] = biological target: T2, androgen receptor from rat ventral prostate (Rattus norvegicus, UniProt P15207); experiment: Androgen RBA: relative binding to androgen receptor; settings: Dihydrotestosterone = 100
T2 construct: androgen receptor from rat ventral prostate; from tissue; host or cells: rat ventral prostate
T2 sequence (P15207 1-902): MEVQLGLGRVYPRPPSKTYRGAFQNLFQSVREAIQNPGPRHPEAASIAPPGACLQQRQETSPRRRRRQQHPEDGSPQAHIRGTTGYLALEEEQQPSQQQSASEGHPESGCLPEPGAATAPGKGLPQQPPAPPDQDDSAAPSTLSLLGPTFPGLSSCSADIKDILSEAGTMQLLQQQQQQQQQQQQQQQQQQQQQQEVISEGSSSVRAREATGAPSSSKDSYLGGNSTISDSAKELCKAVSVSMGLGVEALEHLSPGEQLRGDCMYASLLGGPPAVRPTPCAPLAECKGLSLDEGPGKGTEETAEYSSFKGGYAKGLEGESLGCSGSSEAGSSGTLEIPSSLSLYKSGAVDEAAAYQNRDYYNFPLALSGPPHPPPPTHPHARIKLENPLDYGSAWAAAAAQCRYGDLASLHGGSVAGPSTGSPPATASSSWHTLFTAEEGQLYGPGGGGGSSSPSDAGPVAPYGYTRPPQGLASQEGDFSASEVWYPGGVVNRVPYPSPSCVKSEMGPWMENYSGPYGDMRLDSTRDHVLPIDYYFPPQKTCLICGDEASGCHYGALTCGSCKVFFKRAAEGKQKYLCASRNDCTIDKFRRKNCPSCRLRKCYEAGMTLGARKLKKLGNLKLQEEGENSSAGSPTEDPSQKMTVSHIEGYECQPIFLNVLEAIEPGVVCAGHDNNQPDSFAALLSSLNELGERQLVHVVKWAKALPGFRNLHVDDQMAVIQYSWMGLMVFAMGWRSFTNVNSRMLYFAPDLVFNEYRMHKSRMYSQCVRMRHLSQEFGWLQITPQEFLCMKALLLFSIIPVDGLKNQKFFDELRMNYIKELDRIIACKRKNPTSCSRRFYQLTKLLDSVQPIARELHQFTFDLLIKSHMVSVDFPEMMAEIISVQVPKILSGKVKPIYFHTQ

immature female rats = experiment: Estrogenic Activity, subcutaneous administration to immature female rats; type: in vivo, rat; settings: Estradiol = 100
Protocol: as §1

| Compound | Final Body Weight (% change from control) (Male Rats; 0.6 mg, week 1 after dose) | Seminal Vesicle Weight (% change from control) (Male Rats; 0.6 mg, week 1 after dose) | Ventral Prostate Weight (% change from control) (Male Rats; 0.6 mg, week 1 after dose) | Final Body Weight (% change from control) (Male Rats; 0.6 mg, week 2 after dose) | Seminal Vesicle Weight (% change from control) (Male Rats; 0.6 mg, week 2 after dose) | Ventral Prostate Weight (% change from control) (Male Rats; 0.6 mg, week 2 after dose) | Final Body Weight (% change from control) (Male Rats; 0.6 mg, week 4 after dose) | Seminal Vesicle Weight (% change from control) (Male Rats; 0.6 mg, week 4 after dose) | Ventral Prostate Weight (% change from control) (Male Rats; 0.6 mg, week 4 after dose) | Final Body Weight (% change from control) (Male Rats; 0.6 mg, week 6 after dose) | Seminal Vesicle Weight (% change from control) (Male Rats; 0.6 mg, week 6 after dose) | Ventral Prostate Weight (% change from control) (Male Rats; 0.6 mg, week 6 after dose) | Final Body Weight (% change from control) (Male Rats; 0.6 mg, week 8 after dose) | Seminal Vesicle Weight (% change from control) (Male Rats; 0.6 mg, week 8 after dose) | Ventral Prostate Weight (% change from control) (Male Rats; 0.6 mg, week 8 after dose) | Final Body Weight (% change from control) (Male Rats; 0.6 mg, week 10 after dose) | Seminal Vesicle Weight (% change from control) (Male Rats; 0.6 mg, week 10 after dose) | Ventral Prostate Weight (% change from control) (Male Rats; 0.6 mg, week 10 after dose) | Androgenic Activity, Seminal Vesicles [2] | Androgenic Activity, Ventral Prostate [2] | further results |
| --- | --- | --- | --- | --- | --- | --- | --- | --- | --- | --- | --- | --- | --- | --- | --- | --- | --- | --- | --- | --- | --- |
| CCCCCCC(=O)O[C@H]1CC[C@H]2[C@H]3[C@H]([C@@H](C)C[C@]12C)[C@H]1CCC(=O)C=C1C[C@H]3C [RTI 147-029, 7α,11β-dimethyl-17β-heptanoyloxyestr-4-en-3-one] | 15% | 968% | 628% | 6% | 1428% | 778% | 1% | 1222% | 1145% | 0% | 1777% | 1810% | −16% | 1044% | 858% | 1% | 924% | 749% | – | – | Final Body Weight (% change from control) (Male Rats; 0.3 mg, week 1 after dose): 9%; Seminal Vesicle Weight (% change from control) (Male Rats; 0.3 mg, week 1 after dose): 571%; Ventral Prostate Weight (% change from control) (Male Rats; 0.3 mg, week 1 after dose): 368%; Final Body Weight (% change from control) (Male Rats; 0.3 mg, week 2 after dose): 1%; Seminal Vesicle Weight (% change from control) (Male Rats; 0.3 mg, week 2 after dose): 580%; Ventral Prostate Weight (% change from control) (Male Rats; 0.3 mg, week 2 after dose): 582%; Final Body Weight (% change from control) (Male Rats; 0.3 mg, week 4 after dose): 3%; Seminal Vesicle Weight (% change from control) (Male Rats; 0.3 mg, week 4 after dose): 438%; Ventral Prostate Weight (% change from control) (Male Rats; 0.3 mg, week 4 after dose): 583%; Final Body Weight (% change from control) (Male Rats; 0.3 mg, week 6 after dose): −1%; Seminal Vesicle Weight (% change from control) (Male Rats; 0.3 mg, week 6 after dose): 603%; Ventral Prostate Weight (% change from control) (Male Rats; 0.3 mg, week 6 after dose): 649%; Final Body Weight (% change from control) (Male Rats; 0.3 mg, week 8 after dose): −10%; Seminal Vesicle Weight (% change from control) (Male Rats; 0.3 mg, week 8 after dose): 312%; Ventral Prostate Weight (% change from control) (Male Rats; 0.3 mg, week 8 after dose): 340%; Final Body Weight (% change from control) (Male Rats; 0.3 mg, week 10 after dose): −2%; Seminal Vesicle Weight (% change from control) (Male Rats; 0.3 mg, week 10 after dose): 426%; Ventral Prostate Weight (% change from control) (Male Rats; 0.3 mg, week 10 after dose): 562%; potency and duration of action as compared with testosterone enanthate (Male Rats; in words, refers to Table 2): greater potency and longer duration of action |
| C[C@@H]1CC2=CC(=O)CC[C@@H]2[C@@H]2[C@@H]1[C@@H]1CC[C@H](O)[C@@]1(C)C[C@@H]2C [RTI 1176-012, 7α,11β-dimethyl-17β-hydroxyestr-4-en-3-one] | – | – | – | – | – | – | – | – | – | – | – | – | – | – | – | – | – | – | 1540 | 1480 | Estrogen RBA [1]: 0.6; acute androgenic activity as compared with 7α-methyl-19-nortesterone ([2]; in words, refers to Table 1): marked increase in acute androgenic activity; Androgenic Activity, Levator Ani [2]: 3800; melting point: 149 to 151 °C; Androgen RBA [3]: 194; Estrogenic Activity (immature female rats): 0.8 |
| C[C@@H]1CC2=CC(=O)CC[C@@H]2[C@H]2CC[C@]3(C)[C@@H](O)CC[C@H]3[C@@H]21 [RTI 1176-024, 7α-methyl-19-nortestosterone] | – | – | – | – | – | – | – | – | – | – | – | – | – | – | – | – | – | – | 790 | 609 | Androgenic Activity, Levator Ani [2]: 2510 |
| C[C@@H]1C[C@H]2CC(=O)CC[C@@H]2[C@@H]2[C@@H]1[C@@H]1CC[C@H](O)[C@@]1(C)C[C@@H]2C [RTI 1471-032, 7α,11β-dimethyl-17β-hydroxy-5α-estran-3-one] | – | – | – | – | – | – | – | – | – | – | – | – | – | – | – | – | – | – | 377 | 742 | Estrogenic Activity (immature female rats): 0.7 |
| C=C1C[C@]2(C)[C@@H](O)CC[C@H]2[C@H]2[C@H]1[C@H]1CCC(=O)C=C1C[C@H]2C [RTI 1471-034, 17β-Hydroxy-7α-methyl-11-methyleneestr-4-en-3-one] | – | – | – | – | – | – | – | – | – | – | – | – | – | – | – | – | – | – | 993 | 1519-2148 | Androgen RBA [3]: 176 |
| CCCCCCC(=O)O[C@H]1CC[C@H]2[C@@H]3CCC4=CC(=O)CC[C@]4(C)[C@H]3CC[C@]12C [Testosterone enanthate, reference compound] | 0% | 452% | 409% | 6% | 318% | 339% | −7% | 281% | 291% | 0% | 248% | 405% | 6% | 187% | 150% | 0% | 179% | 130% | – | – | – |
